According to patent US11788092B2, “Recombinant microorganisms and uses therefor” (LanzaTech, Inc., priority 2021, dated 2023):
≈ marks a conversion by molar mass, not a printed value.

Assays:
[1] = tested on: C. autoethanogenum strain with aldehyde::ferredoxin oxidoreductase (AOR) enzymes deleted; experiment: 3-HP challenge experiment, autotrophic growth in Schott bottles; type: cell-based, Clostridium autoethanogenum
Description: FIGS. 2A-2B show autotrophic growth of Clostridium autoethanogenum Δaor strain in the presence of different amounts of 3-hydroxypropionic acid (at 0, 0.2, 0.5, 1, 2, 5 and 10 g/L) in Schott bottles. FIG. 2A: Growth profile; FIG. 2B: Peak Biomass. Unc=Unchallenged; N=2; Error bar=S.D.
To study the toxicity of 3-HP on autotrophic growth of C. autoethanogenum, a 3-HP challenge experiment (at 0, 0.2, 0.5, 1, 2, 5 and 10 g/L) was conducted in Schott bottles with synthetic gas blend (50% CO, 10% H2, 30% CO2 and 10% N2) using a strain with aldehyde::ferredoxin oxidoreductase (AOR) enzymes deleted (FIG. 2). […] Unc=Unchallenged; N=2; Error bar=S.D.

Synechococcus elongatus = details: Begemann et al. 2013; cited from earlier work

## O=C(O)CCO [Strain 3-HP, 3-Hydroxypropionate]
[1]; 5 g/L 3-HP
  effect on growth rate: reduced the growth rate
[1]; 5 g/L 3-HP, synthetic gas blend 50% CO, 10% H2, 30% CO2, 10% N2, N=2
  reduction of peak OD600 nm vs unchallenged culture: 22%
[1]; 10 g/L 3-HP
  effect on growth rate: more pronounced decrease in growth rate
[1]; 10 g/L 3-HP, synthetic gas blend 50% CO, 10% H2, 30% CO2, 10% N2, N=2
  decrease in peak OD600 nm vs unchallenged culture: 40%
Synechococcus elongatus
  minimal inhibitory concentration: 180 µg/mL (≈ 2000 µM)
